Experimental data from US20110263454A1, “Methods of Identifying Functional Characteristics of Promoters, Transcription Modifying Proteins and Transcription Modulating Agents” (Salk Institute for Biological Studies, priority 2008, published 2011).

Legend:
hCAR promoter = assay: NHR-promoter luciferase screen, hCAR promoter; format: cell-based, human; conditions: for luciferase activity normalized to lacZ activity and to a control, hCAR: hCAR promoter-luciferase, CV-1 cells, NHR +/- ligand, control = 1.00; for Luc. act., normalized to lacZ / Normalized Luc. act., normalized to control: hCAR promoter, HR/ligand component
Method: (§1) The use, feasibility, and reproducibility of the functional NHR-promoter screen in a 48-well format have been tested validated. Briefly, there were co-expressed 50 ng of each NHR/NHR homodimer or NHR/RXR heterodimer with 100 ng promoter/luciferase construct and 50 ng of LacZ (as a control for transfection efficiency) in CV-1 cells using Fugene HD (Roche) as a transfection reagent (alternatively or additionally, a CMV-YFP construct can be used as a transfection control). Each of the nuclear hormone receptors that were used in these experiments was cloned into a pcDNA3.1 vector and comprised a C-terminally linked V5H6 tag. Twenty-four hours after transfection, appropriate ligands were added, where applicable, (see Table 5 for various ligands and concentrations and after 48 hrs, samples were assayed for luciferase and LacZ activity. To measure for luciferase activity 15 ul of sample was added to 30 ul of luciferase buffer (20 mM tricine, 1.07 mM MgCarbonate, 2.67 mM MgSulfate, 0.1 mM Naz-EDTA, 5 mM DTT, 5 mM ATP, 0.15 mg/ml CoA, 0.5 mM Luciferin), mixed briefly, and run in a Perkin Elmer Victor 5 luminometer. Thus, the functional NHR-promoter screen was used to observe the transcriptional activity of 29 promoters from various physiological pathways including inflammation, lipid and sugar metabolism, cholesterol transport, xenobiotic metabolism, and circadian rhythm.
(§2) The promoters that facilitate transcription of the indicated gene products that were tested using the protocols described herein are listed in the first row of the table. The nuclear hormone receptors and, where applicable, ligands that were assayed for their transcriptional effects on the promoters are listed in the first column of the table. The data represent the luciferase activity of each sample normalized to both the lacZ activity of that sample and to a control, e.g., no NHR or ligand, as customary in the art. As described previously, these normalizations allow the transcriptional activity of each reporter cell to be compared to other samples.
(§3) Tables 7-40 show the transcriptional effects of the hormone receptors, and, where applicable, ligands (orphan receptors are screened without ligand), on each individual promoter. […] The control data of each table are shown in their last rows.

mLeptin promoter = assay: NHR-promoter luciferase screen, mLeptin promoter; format: cell-based, mouse; conditions: for Luc. act., normalized to lacZ / Normalized Luc. act., normalized to control: Table 7, mLeptin; for Results of assays of transcription factor (+/- ligand) with mLeptin: Table 6d, luciferase activity relative to control (control = 1.00); for luciferase/LacZ, mLeptin (selected results): mLeptin promoter-luciferase, NHR +/- ligand, control = 1.0
Method: as §1, §2, §3

mNPY promoter = assay: NHR-promoter luciferase screen, mNPY promoter; format: cell-based, mouse; conditions: for Results of assays of transcription factor (+/- ligand) with mNPY: Table 6d, luciferase activity relative to control (control = 1.00); for Luc. act., normalized to lacZ / Normalized Luc. act., normalized to control: mNPY promoter, HR component with or without ligand; for Normalized Luc. act., normalized to control: relative to control
Method: as §1, §2, §3

mUCP3 promoter = assay: NHR-promoter luciferase screen, mUCP3 promoter; format: cell-based, mouse; conditions: for Normalized Luc. act., normalized to control / Luc. act., normalized to lacZ: mUCP3 promoter reporter; for Normalized Luc. act., normalized to control: HR without or with its ligand, relative to control; for Luc. act., normalized to lacZ: hormone receptor (HR) without or with its ligand; for mUCP3 promoter reporter activity: transcription factor +/- ligand, control = 1.00
Method: as §1, §2, §3

mAdiponectin promoter = assay: NHR-promoter luciferase screen, mAdiponectin promoter; format: cell-based, mouse; conditions: for Luc. act., normalized to lacZ / Normalized Luc. act., normalized to control: Adiponectin, HR component without or with its ligand; for mAdiponectin promoter reporter activity: transcription factor +/- ligand, control = 1.00
Method: as §1, §2, §3

mABCA1 promoter = assay: NHR-promoter luciferase screen, mABCA1 promoter; format: cell-based, mouse; conditions: for Luc. act., normalized to lacZ / Normalized Luc. act., normalized to control: ABCA1 promoter, hormone receptor with or without its ligand; for Normalized Luc. act., normalized to control: relative to control; for mABCA1 promoter reporter activity: transcription factor +/- ligand, control = 1.00
Method: as §1, §2, §3

Substance	luciferase activity normalized to lacZ activity and to a control, hCAR (hCAR promoter)	Luc. act., normalized to lacZ (hCAR promoter)	Normalized Luc. act., normalized to control (hCAR promoter)	Luc. act., normalized to lacZ (mLeptin promoter)	Normalized Luc. act., normalized to control (mLeptin promoter)	Results of assays of transcription factor (+/- ligand) with mLeptin (mLeptin promoter)	luciferase/LacZ, mLeptin (selected results) (mLeptin promoter)	Results of assays of transcription factor (+/- ligand) with mNPY (mNPY promoter)	Luc. act., normalized to lacZ (mNPY promoter)	Normalized Luc. act., normalized to control (mNPY promoter)	Normalized Luc. act., normalized to control (mUCP3 promoter)	Luc. act., normalized to lacZ (mUCP3 promoter)	mUCP3 promoter reporter activity (mUCP3 promoter)	Luc. act., normalized to lacZ (mAdiponectin promoter)	Normalized Luc. act., normalized to control (mAdiponectin promoter)	mAdiponectin promoter reporter activity (mAdiponectin promoter)	Luc. act., normalized to lacZ (mABCA1 promoter)	Normalized Luc. act., normalized to control (mABCA1 promoter)	mABCA1 promoter reporter activity (mABCA1 promoter)
GR: Glucocorticoid Receptor (NR3C1), cDNA driver	0.36	11.25	0.4	1.7	0.6	0.58	0.6	0.57	47.8	0.6	0.9	0.59	0.88	33.2	0.5	0.53	8.5	1.5	1.52
PNR: Photoreceptor-specific Nuclear Receptor (NR2E3), cDNA driver	0.38	11.9	0.4	2.0	0.7	0.68		2.00	168.3	2.0	0.8	0.5	0.79	70.7	1.1	1.13	9.9	1.8	1.76
AR: Androsterone Receptor (NR3C4), cDNA driver	0.89	28.0	0.9	2.5	0.8	0.84		1.12	93.8	1.1	2.5	1.69	2.50	82.7	1.3	1.32	8.3	1.5	1.48
VDR: Vitamin D Receptor (NR1I1), cDNA driver	0.83	26.1	0.8	2.6	0.9	0.90		0.79	66.7	0.8	1.5	1.0	1.49	57.4	0.9	0.91	15.2	2.7	2.71
RXRa: Retinoic X Receptor α (NR2B1), cDNA driver	0.78	24.7	0.8	2.3	0.8	0.77		0.95	80.0	1.0	1.3	0.9	1.27	57.3	0.9	0.91	8.7	1.6	1.56
NR4a1: NR4a1 (NR4A1; NUR77), nuclear hormone receptor cDNA driver	0.97	30.7	1.0	2.3	0.8	0.80	0.8	0.92	77.0	0.9	2.1	1.40	2.07	85.6	1.4	1.36	11.4	2.0	2.04
ERR1: Estrogen Related Receptor α (NR3B1, ERRa), cDNA driver	0.82	25.8	0.8	2.6	0.9	0.88		0.83	69.6	0.8	1.5	1.0	1.47	49.2	0.8	0.78	8.2	1.5	1.47
SF-1: Steroidogenic Factor 1 (NR5A1, SF1), cDNA driver	3.60	113.6	3.6	4.7	1.6	1.60		2.12	177.6	2.1	5.5	3.7	5.46	35.0	0.6	0.56	34.4	6.1	6.12
PPARa: Peroxisome proliferator activated receptor α (NR1C1), cDNA driver	1.39	43.9	1.4	2.4	0.8	0.81		0.62	51.7	0.6	2.1	1.5	2.15	40.4	0.6	0.64	10.7	1.9	1.90
PPARg: Peroxisome proliferator activated receptor γ (NR1C3), cDNA driver	1.58	49.8	1.6	2.9	1.0	1.00	1.0	1.14	95.6	1.1	1.8	1.2	1.83	80.6	1.3	1.28	14.4	2.6	2.56
